Values joined by “and” are separate entries in the source; they are usually repeats but may differ in a detail not shown here. Equal entries are not always repeated. “Also recorded” adds a separate entry of the source. Where two headings read alike, the source gives them in different places.
Columns and labels:
Format in all cases: in vivo, mouse
[1] = plasma, brain and CSF levels after a single oral dose in mice
Experimental: Prior to the evaluation of the new D1R PAM 26 in animal models, the in vivo cerebrospinal fluid (CSF) and brain permeability were studied. […] Concentrations in the CSF and brain were quantifiable up to 4 h. Brain-to-plasma concentration ratios were in the range of 0.55–1.15 between 0.5 and 4 h and CSF-to-plasma concentration ratio in the range of 0.13–0.21 between 0.5 and 4 h.
Figure 5 Compound levels in the plasma, brain, and CSF of mouse administered with 5 mg/kg (po) of compound 26. Horizontal dotted line indicates the EC50 value of the compound.

[2] = plasma and brain concentrations in the locomotor activity study; details: 30 mg/kg po; for concentration at 30 min / concentration at 60 min: male, C57BL/6, mouse, po, 30 mg/kg
Experimental: Regarding the PD model, reserpine is an alkaloid known to induce hypomobility/akinesia and rigidity, and reserpinized rodents are widely used as a preclinical model for PD.
The study was carried out in male C57BL/6 wild-type (22–25 g) mice that were acclimatized for 5 days. Animals were randomized based on body weight into six groups (G1 to G6), ten animals per group (n = 10), being group G1 the naïve control group. Animals were fed with standard diet ad libitum. Animals were dosed with subcutaneous administration of reserpine (2.5 mg/kg in DMSO/saline) and after 20 h they were treated with a vehicle (10 mL/kg, po), compound 26 (30 mg/kg, po), L-DOPA (100 or 400 mg/kg, ip) + carbidopa (100 mg/kg, ip) and/or their combination, as indicated in Figure 7. The vehicle employed for compound 26 administration was 5% NMP + 5% solutol HS-15 + 90% normal saline. L-DOPA and carbidopa were administered 30 min prior to start of locomotor activity recording. Compound 26 was administered and 15 min later, mice were placed in the locomotor activity cage to measure the locomotor activity for 60 min (total distance travelled) using ALL Maze version 0.5 automated software enabled with video tracking system. After the activity sessions, raw data were reduced using ALL Maze 5.0 software and Microsoft Excel. Statistical analysis was done with GraphPad Prism-5 using one way ANOVA followed by Dunnett’s test/Tukey’s post hoc test and/or two-way ANOVA followed by Bonferroni post hoc test. Data were considered statistically significant, if P value was less than 0.05. […]
Table S2.Plasma and brain concentrations achieved for compound 26in the locomotor
Plasma concentration (ng/mL) Brain concentration (ng/mL)
Animal 30 min 60 min Animal 30 min 60 min

[3] = tested on: reserpinized C57BL/6 mice; assay: locomotor activity in reserpinized mice
Experimental: The study was carried out in male C57BL/6 wild-type (22–25 g) mice that were acclimatized for 5 days. Animals were randomized based on body weight into six groups (G1 to G6), ten animals per group (n = 10), being group G1 the naïve control group. Animals were fed with standard diet ad libitum. Animals were dosed with subcutaneous administration of reserpine (2.5 mg/kg in DMSO/saline) and after 20 h they were treated with a vehicle (10 mL/kg, po), compound 26 (30 mg/kg, po), L-DOPA (100 or 400 mg/kg, ip) + carbidopa (100 mg/kg, ip) and/or their combination, as indicated in Figure 7. The vehicle employed for compound 26 administration was 5% NMP + 5% solutol HS-15 + 90% normal saline. L-DOPA and carbidopa were administered 30 min prior to start of locomotor activity recording. Compound 26 was administered and 15 min later, mice were placed in the locomotor activity cage to measure the locomotor activity for 60 min (total distance travelled) using ALL Maze version 0.5 automated software enabled with video tracking system. After the activity sessions, raw data were reduced using ALL Maze 5.0 software and Microsoft Excel. Statistical analysis was done with GraphPad Prism-5 using one way ANOVA followed by Dunnett’s test/Tukey’s post hoc test and/or two-way ANOVA followed by Bonferroni post hoc test. Data were considered statistically significant, if P value was less than 0.05.

C57BL/6J mice = assay: cocaine-induced hyperlocomotion assay; details: 1 mg/kg ip
Experimental: The experiment was conducted in adherence to the European Communities Council Directive (86/609/ECC) and Spanish regulations (BOE 252/34367-91, 2005) for the use of laboratory animals. The assay was performed according to a previously reported method[57] using 3 month old male mice with C57BL/6J background, and 8 mice were used for each experimental condition. All mice were handled and habituated to the injection procedures once per day for 5 days prior to behavioral testing. Experiments were carried out between 8:00 and 20:00, and the animals were acclimated to the experimental room for 30 min each day. Performance in the open field was recorded by a computer-based video tracking system (Smart v2.5, Panlab, Barcelona, Spain). Four open fields (50 × 50 × 50 cm, Panlab) with gray backgrounds were used, and the maximum light intensity in the center of the open field was 100 lux. Animals received a dose of 26 (1 mg/kg, ip) in a volume of 20 mL/kg of sterile saline as the vehicle, 15 min prior to a dose of cocaine (20 mg/kg, sc). Five min after cocaine injection, animals were placed in the open field and locomotion was measured at […] along a 30-min period of analysis. Horizontal locomotion was measured as total distance traveled (cm).

In the case of `CS(=N)(=O)c1ccc(-c2ccccc2OCF)cc1` (stereo not shown) [Compound 26, 2-(Fluoromethoxy)-4′-(S-methanesulfonimidoyl)-1,1′-biphenyl], the “CSF-to-plasma free concentration ratio” value ([1]; 5 mg/kg po) is reported as “approximately 1”, the “time up to which CSF concentrations were quantifiable” value ([1]; 5 mg/kg po, male BALB/c mice) is reported as 4 h and the “time up to which brain concentrations were quantifiable” value ([1]; 5 mg/kg po, male BALB/c mice) is reported as 4 h. The “time up to which plasma concentrations were quantifiable” value ([1]; 5 mg/kg po, male BALB/c mice) was 8 h, the Kp ([1]; male, BALB/c, mouse, CSF and plasma, 5 mg/kg po, between 0.5 and 4 h, read-out: CSF-to-plasma concentration ratio) was 0.13 to 0.21 and the Kp at 4 h ([1]; male, BALB/c, mouse, brain and plasma, 5 mg/kg po, between 0.5 and 4 h, read-out: brain-to-plasma concentration ratio) was 0.55 to 1.15. For the same molecule, the Tmax at 8 h ([1]; mouse, plasma, 5 mg/kg single oral dose, male BALB/c mice) was 30 min, the “Brain concentration (ng/mL), individual animals 1-3” value ([2]; 30 min) was 7185.33 ng/mL and 5537.43 ng/mL and the “Plasma concentration (ng/mL), individual animals 1-3” value ([2]; 30 min) was 9994.87 ng/mL and 7753.96 ng/mL. The “Brain concentration (ng/mL), individual animals 1-3” value ([2]; 60 min) was 5552.94 ng/mL and 2620.14 ng/mL and 4178.34 ng/mL, the “Plasma concentration (ng/mL), individual animals 1-3” value ([2]; 60 min) was 6716.72 ng/mL and 6187.65 ng/mL and 1662.96 ng/mL and the concentration at 30 min ([2]; brain, 30 min, read-out: Brain concentration (ng/mL), individual animals 1-3) was 7340 ng/mL. For the same molecule, the concentration at 30 min ([2]; brain, 30 min, read-out: Brain concentration (ng/mL), mean) was 6690 ng/mL, the concentration at 60 min ([2]; brain, 60 min, read-out: Brain concentration (ng/mL), mean) was 4120 ng/mL and the concentration at 30 min ([2]; plasma, 30 min, read-out: Plasma concentration (ng/mL), individual animals 1-3) was 9690 ng/mL. The concentration at 30 min ([2]; plasma, 30 min, read-out: Plasma concentration (ng/mL), mean) was 9150 ng/mL, the concentration at 60 min ([2]; plasma, 60 min, read-out: Plasma concentration (ng/mL), mean) was 4860 ng/mL and the “adverse effects observed in the animals” value ([3]; after oral dose administration, 30 mg/kg) was “no sign of adverse effects”. The “effect on locomotor activity in combination with L-DOPA” value ([3]; reserpine 2.5 mg/kg sc, 26 30 mg/kg po plus L-DOPA 100 or 400 mg/kg ip) was “moderate synergistic effect”, the “recovery of decreased locomotor activity, substance alone” value ([3]; reserpine 2.5 mg/kg sc, 26 30 mg/kg po, L-DOPA 100 or 400 mg/kg ip) was “small recovery of decreased locomotor activity” and the “effect on cocaine-induced hyperlocomotion” value (C57BL/6J mice; 15 min before cocaine 20 mg/kg sc) was “potentiated the hyperlocomotion induced by cocaine; also recorded: enhanced cocaine (20 mg/kg, sc)-induced hyperlocomotion”. The “intrinsic locomotor activity, compound alone” value (C57BL/6J mice; no cocaine) was “no intrinsic locomotor activity”.
